From ChEMBL document CHEMBL3217619, “Design and synthesis of trans-2-substituted-cyclopropane-1-carboxylic acids as the first non-natural small molecule inhibitors of O-acetylserine sulfhydrylase” (Medchemcomm, 2012) come the findings set out here.

Assay [1] can be described thus: Binding affinity to Haemophilus influenzae OASS-A expressed in Escherichia coli assessed as dissociation constant by fluorometric analysis.
Assay [2] is described as follows: Inhibition of Haemophilus influenzae OASS-A expressed in Escherichia coli using OAS/TNB as substrate by spectrophotometric analysis.
The nature of assay [3]: Binding affinity to Haemophilus influenzae OASS-A expressed in Escherichia coli using OAS/TNB as substrate assessed as dissociation constant.
Assay [4] is described as follows: Competitive inhibition of Haemophilus influenzae OASS-A expressed in Escherichia coli using OAS/TNB as substrate by ping-pong analysis.

By Kd is commonly meant the concentration at which binding is half-saturated. With `CCOC(=O)[C@H]1C[C@@H]1C(=O)O` (racemic), the Kd in assay [1] was determined as 760 µM. `CCOC(=O)[C@H]1C[C@H]1C(=O)O` (racemic): the Kd in assay [1] is 4700 µM. The same measure, in the same setting: for `CC(C)OC(=O)[C@H]1C[C@@H]1C(=O)O` (racemic) the value was 513 µM; for `CC(C)COC(=O)[C@H]1C[C@@H]1C(=O)O` (racemic), 950 µM; for `CCOC[C@H]1C[C@@H]1C(=O)O` (racemic), 5.3 µM. On the same count and under the same terms, for `CCCOC[C@H]1C[C@@H]1C(=O)O` (racemic) the value was 6.5 µM.

Broadly, the IC50 is the midpoint of a concentration-inhibition curve. A higher IC50 goes with weaker potency. As to `C/C=C/[C@H]1C[C@@H]1C(=O)O` (racemic), the IC50 in assay [2] stood at 700 µM; in assay [4] it was 600 µM. Besides, the Kd is 200 µM in assay [3] and 1.46 µM in assay [1]. Take `CC/C=C/[C@H]1C[C@@H]1C(=O)O` (racemic): the Kd in assay [1] came to 21.5 µM.
